Data taken from patent publication US20230052740A1, “MODULATORS OF CIRCADIAN RHYTHMS AND USES THEREOF” (The Regents of the University of California, priority 2019, published 2023).
Where two headings read alike, the source gives them in different places.

Legend:
[1] = system: C3H/HeN mice; assay: Phase shift of circadian running wheel activity onset in constant dark; type: in vivo, mouse; conditions: for advance of the onset of activity: 0.9 μg/mouse (~30 μg/Kg) s.c., CT10 (dusk), 3 days; for advance of the onset of running wheel activity: 30 μg/mouse (1 mg/Kg) s.c., CT10, WT; for EC50 of in vivo activity (circadian phase shift): mouse
Excerpt: Male and female C3H/HeN (C3H) wild-type (WT), MT1 knockout (MT1KO), and MT2 knockout (MT2KO) mice (average 6.28 months) used in this study were raised in our breeding colony at University at Buffalo. […] Genotype was confirmed using tail samples at the end of each experiment and was verified periodically during the tenure of the colony. The strains of mice in our breeding colony were re-derived periodically by backcrossing with WT mice to reduce genetic drift.
Mice were group housed (3-5 per cage) with corncob bedding in polycarbonate translucent cages (30×19 cm) and maintained in a 14/10 light-dark (LD) cycle (Zeitgeber time 0 or ZT0 corresponds to Lights ON and ZT 14 to Lights OFF) in temperature and humidity controlled rooms with ad libitum access to food and water in the Laboratory Animal Facility at the University at Buffalo. Light levels were 200-300 lux at the level of the cage. Treatments and animal care performed in the dark were under a dim red safelight (15 watts, Kodak 1A filter) with illuminance of less than 3-5 lux (Benloucif, S. & Dubocovich, M. L. J Biol Rhythms 11, 113-125, (1996). All experimental procedures using mice were conducted in accordance with guidelines set forth by the National Institutes of Health and approved by the University at Buffalo Institutional Animal Care and Use Committee.
Circadian rhythm phase was determined for each mouse using the onset of running wheel activity defined as CT12 (Circadian Time 12). Running wheel activity was measured continuously via magnetic microswitches detecting wheel revolutions with a computer equipped with Clocklab data collection Software™ (Actimetrics: Wilmette, Ill.). All actigraphy data was visualized and analyzed using ClockLab™ and MATLAB™ software. All mice were individually housed in cages (33×15 cm) equipped with running wheels in light-tight ventilated cabinets with controlled temperature and LD cycles (Phenome Technologies: Skokie, Ill.). Male and female mice were housed in separate cabinets for all experiments.
Following a period of 14 days in a LD cycle mice were placed in constant dark (DD) beginning at ZT12 (dark onset). Mice were keptin DD (2-3 weeks) untilastable free-running phase of running wheel activity rhythm onset was established. Circadian times of treatment were predicated from best fit lines of running wheel activity onsets for of running either pre (7-14 days) and post (7-14 days) treatment. Treatment times were at CT10 (CT9-11) and CT2 (CT1-3) within a 3 hour window. […] Vehicle or drug treatments were repeated for 3 consecutive days at the selected circadian time following the three-pulse treatment protocol described (Benloucif, supra). Phase shifts were quantified using the best-fit lines for onsets of activity during pre and post treatment periods. Differences are characterized as phase delays (pre-treatment ahead of post treatment best fit line onset) or phase advances (post treatment ahead of pre treatment best fit line onset) of running wheel activity onset rhythms.
All statistical analyses as described in further detail for each experiment were conducted using GraphPad Prism 8™ (La Jolla, Calif.). All data sets were visualized for normality using QQ plots of predicted vs. actual residuals. Actigraphy data was generated for visualization blind to treatment prior to the quantification and statistical analysis stages. […] Data in FIGS. 4F & 4G were compared via a two-way ANOVA (3×2: genotype x treatment) with Tukey's post hoc analyses (P<0.05). Comparisons for FIG. 4L, FIGS. 11H-11J were made by mixed effect two-way repeated measures ANOVA (treatment×time) with Sidak's post hoc test (P<0.05). Number of days to re-entrainment was compared via one-way ANOVA or two-way ANOVA for FIG. 4M & FIG. 4N with a Dunnet's & Tukey's post hoc test (P<0.05) respectively. P values and values for statistical analyses are included in figure legends. […]

[2] = Mouse pharmacokinetic (PK) studies; type: in vivo; conditions: for Brain/Plasma Ratio: 30′; for T1/2: plasma
[3] = molecular target: T1, MT2 (Homo sapiens, UniProt P49286); assay: cAMP assay (GloSensor), isoproterenol-stimulated cAMP in HEK cells; type: cell-based; parameters: expressed in transfected cells; host or cells: HEK-T (HEK-293 T) cells, co-transfected with GloSensor DNA; conditions: for hMT2 pEC50: FIG. 3D-3F, transiently expressed receptor, isoproterenol-stimulated cAMP production; for hMT2 Schild slope / hMT2 pKB: Schild analysis, competitive antagonism of melatonin
T1 sequence (P49286 1-362): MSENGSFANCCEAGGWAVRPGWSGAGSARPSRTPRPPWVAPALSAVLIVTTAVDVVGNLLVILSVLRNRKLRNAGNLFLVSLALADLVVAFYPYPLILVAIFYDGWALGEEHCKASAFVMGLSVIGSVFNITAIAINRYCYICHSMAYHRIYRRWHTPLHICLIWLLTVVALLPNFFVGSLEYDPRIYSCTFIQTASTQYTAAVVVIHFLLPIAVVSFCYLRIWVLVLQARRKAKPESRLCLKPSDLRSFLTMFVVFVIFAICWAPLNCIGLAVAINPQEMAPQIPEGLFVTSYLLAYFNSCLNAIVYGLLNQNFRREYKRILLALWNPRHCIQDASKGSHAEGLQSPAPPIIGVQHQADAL
Procedure: MT1 and MT2 receptors were tested using Promega's spilt luciferase based GboSensor cAMP biosensor technology. HEK-T cells were plated in 15 cm cell culture dish (at a density of 18 million cells) containing DMEM composed of 10% dialyzed FBS, 2 mM L-glutamine, 100 units/ml penicillin G, 100 μg/ml streptomycin for 4-6 hour. Then, cells were co-transfected with 8 μg of construct which encodes either MT1 or MT2 (de-Tangonized constructs) and […] of Glosensor DNA. […] The next day, cell medium were discarded and loaded with 20 μl of assay buffer (1×HBSS, 20 mM HEPES, pH 7.4, 0.1% BSA). To measure agonist activity of MT1 or MT2 receptor, 10 μl of test compound solution at 3× final concentration was added for 15 minutes followed by addition of 10 μl of luciferin/isoproterenol mixture (at a final concentration of 4 mM and 200 nM respectively) for another 15 mins for luminescence quantification. Then, plates were counted using SpectraMax luminescence reader (Molecular Device). Data were analyzed using GraphPad Prism 6.0.

SMILES | AUC [2] [ng·h/mL] | CL [2] [mL/min/kg] | Cmax [2] [ng/mL] | Vss [2] [L/kg] | Brain/Plasma Ratio [2] | T1/2 [2] [min] | hMT2 pEC50 [3] | advance of the onset of activity ([1]; WT) | advance of the onset of running wheel activity ([1]; in words) | EC50 of in vivo activity (circadian phase shift) [1] [µg/kg] | hMT2 Schild slope [3] | hMT2 pKB [3] | further results
COc1ccc(Br)c(CNc2cccnc2)c1 [ZINC128734226] | 282.1 | 117.9 | 1922.8 | 1.11 | 1.58 (30′) | 17.4 | 8.15±0.09 |  |  |  |  |  | effect on circadian phase ([1]; 0.9 or 30 μg/Kg doses, CT10, in words): did not significantly affect circadian phase; Emax ([3]; HEK293, FIG. 3F, normalized to maximal melatonin effect, read-out: hMT2 Emax): 89 ± 3%; Emax ([3]; HEK293, Table 2, agonist, normalized to melatonin response, read-out: MT2 % Emax (converted)): 89%; Emax ([3]; HEK293, Table 4, agonist, read-out: Emax % MT2): 80%; pIC50 MT2 ([3]; Table 4, agonist): 8.2; EC50 ([3]; agonist, isoproterenol-stimulated cAMP inhibition, read-out: EC50 at MT2): 6.3 nM
CC(C)c1ccc(CNc2cccc(-c3ncn[nH]3)c2)cc1 [ZINC157673384] | 563.8 | 58.48 | 1299.6 | 1.38 | 1.43 (30′) | 19.2 | 6.18±0.04 | approximately 1 hour | advanced the onset of running wheel activity with an amplitude equivalent to, or even larger than that of melatonin | 30 | 1.0±0.1 | 6.7±0.1 | hMT2 Emax ([3]; FIG. 3D-3E, normalized to isoproterenol-stimulated basal activity): −153±14%; MT2 % Emax ([3]; Table 2, cell marked Inverse (inverse agonist)): 153 ± 14%; pEC50 MT2 (IA) ([3]; Table 4, IA (inverse agonist)): 6.5
Clc1ccc(CNc2cccc(-c3nnc[nH]3)c2)c(Br)c1 [ZINC555417447] | 494.5 | 67.11 | 1948.6 | 1.11 | 3.03 (30′) | 16.2 | 5.66±0.10 | approximately 1 hour | advanced the onset of running wheel activity with an amplitude equivalent to, or even larger than that of melatonin | 30 | 1.3±0.4 | 6.2±0.1 | phase shift of RW activity onset at CT2 ([1]; 30 μg/mouse s.c., CT2 (dawn), WT, MT1KO, MT2KO, in words): did not phase shift RW activity onset; phase advance activity in MT1KO mice ([1]; 30 μg/mouse s.c., CT10, MT1KO, in words): ablation of the activity; phase advance activity in MT2KO mice ([1]; 30 μg/mouse s.c., CT10, MT2KO, in words): maintenance of its activity; Emax ([3]; HEK293, FIG. 3D-3E, normalized to isoproterenol-stimulated basal activity, read-out: hMT2 Emax): -84 ± 9%; Emax ([3]; HEK293, Table 2, cell marked Inverse (inverse agonist), read-out: MT2 % Emax (converted)): 84%; EC50 ([3]; Table 4, IA (inverse agonist), read-out: pEC50 MT2 (IA) (converted)): 1000 nM
